Here are results for 91 compounds from a melting point compilation (Tetko et al.; mined from patent text by program, amines drawn as free bases though some values may be those of a salt).

Bounds are passed on as bounds.

`CCC1Oc2ccc(C(C)C(=O)O)cc2C(=O)C1C` (stereo unspecified) registered a melting point of 114 to 115 °C.
Under `COc1cc(C#CC(=O)c2ccccc2)cc(OC)c1OC` stands 158 to 160 °C; under `Nc1ncnc2c1c(-c1ccc(Oc3ccccc3)cc1)cn2C1CCCC1`, 178 to 179 °C; under `Cc1cccc([N+](=O)[O-])c1C(=O)N[C@@H]1c2cc(OC(F)(F)F)ccc2OC(C)(C)[C@H]1O`, 204 to 206 °C.
To `O=C(OCc1ccccc1)c1ccc2cc(OCc3ccccc3)ccc2c1` belongs 97 to 98 °C; to `COc1ccc(-n2c(Cl)ccc2-c2ccc(S(N)(=O)=O)cc2)cc1`, 119 to 120 °C.
To `CNC1=Nc2ccsc2C(c2ccccc2)=NC1` belongs 223 to 227 °C; to `Cc1cccc(NC2=NCCO2)c1C`, 112 to 114 °C; to `c1ccc(Nc2nnc(-c3cccnc3)s2)cc1`, 252 to 255 °C.
`Cc1cc(-c2ccc(S(C)(=O)=O)cc2)n(-c2ccc(F)cc2)c1C` had a melting point of 159 to 162 °C.
`COc1cc(O[Si](C)(C)C(C)(C)C)c(C)c(C(=O)O)c1Br` came in with a melting point of 120 to 125 °C.
To `Cc1cc2c(cc1C1=NNC(=O)CC1)N(C)C(=O)C(C)O2` (stereo unspecified) belongs 210 to 212 °C.
Under `COc1ccc(-n2nc(CCC(=O)NO)cc2-c2ccc(Cl)cc2)cc1` stands 154 to 156 °C.
Under `CC1(C(=O)c2c[nH]c3ncc(-c4cccc(CCCO)c4)nc23)CCCCC1` stands 80 to 83 °C.
`Oc1ccc(-c2cc3cc(Cl)cc(Cl)c3o2)cc1` returned a melting point of 184 to 186 °C.
Under `CCN(CC)C(=O)c1cc2ccc(C)cc2c(-c2ccccc2Cl)n1` stands 162 °C; under `CC(CCCc1ccccc1)c1cc2oc(=O)c3c(c2cc1O)CCCC3` (stereo unspecified), 184 to 193 °C; under `O=C(CCCCCc1ccc(Cl)cc1)N1CCN(c2cnccn2)CC1`, 88 to 89 °C.
To `N#Cc1cccc2c1[nH]c1ccccc12` belongs 200 to 201 °C; to `CCOc1ccc(/C=C(\NC(=O)c2ccc(OCC(C)C)cc2)C(=O)NCCO)cc1`, 124 to 125 °C.
With `OC1C(COC2CC2)OC(n2cnc3c(NCc4cccc(I)c4)nc(Cl)nc32)C1O` (stereo unspecified), the melting point was 94 to 96 °C.
`CCc1ccc(C#Cc2ccc(Br)cc2)cc1` gave a melting point of 117 °C.
As to `O=C(O)C(=O)c1ccc(OCCCn2c(=O)ccc3ccccc32)cc1`, the melting point lay in the range of 183 to 186 °C.
In the case of `CNc1cc(O)cc(O)c1`, the melting point was 130 °C.
Under `CS(=O)(=O)Nc1cccc(CNC(=O)c2nc3ccccc3c(=O)[nH]2)c1` stands 240 to 248 °C; under `O=c1ccn(CCOCCO)c(C(O)c2ccccc2)c1OCc1ccccc1` (stereo unspecified), 157 to 159 °C.
Under `CCOc1nn(-c2c(Cl)cc(C(F)(F)F)cc2Cl)c(N)c1C(=O)c1cccc(C(F)(F)F)c1` stands 77 to 78 °C.
To `CCC1(C)CC(N(CCN(C(C)=O)C2CC(C)(CC)NC(C)(CC)C2C)C(C)=O)C(C)C(C)(CC)N1` (stereo unspecified) belongs 173 to 175 °C; to `COc1ccc(Nc2cc(-c3ccccc3)nc(N3CCC(O)CC3)n2)cc1Cl`, 188 to 191 °C.
In turn, `CC(C(=O)O)c1cccc2c1Oc1ccccc1CC2` (stereo unspecified) registered a melting point of 133 to 134 °C.
To `CC(C)SCCCCCCCCCCCC(=O)Nc1ccccc1OCCCC(=O)O` belongs 82 to 84 °C; to `Fc1ccc(C23CNCC(CO2)O3)cc1` (stereo unspecified), 89 °C; to `O=C(O)C1=CCN2C=CC=CC2=C1`, 258 to 262 °C.
To `CCOc1ccc(-c2ccc3c(c2)C=C(C(=O)Nc2ccc(CN(C)C4CCOCC4)cc2)CCS3(=O)=O)cc1F` belongs 233 to 235 °C; to `CCN1C(=O)c2cnc(-c3ccccc3)nc2N(C(=O)CCl)c2ccccc21`, 147 to 148 °C; to `CCn1cc(C(=O)O)c(=O)c2ccc(C3CCCCC3)cc21`, 222 to 224 °C.
In the case of `COc1ccc(-c2cnc3nccn3c2)cc1OC1CC2CCC1C2` (stereo unspecified), the melting point turned out to be 130 °C.
To `COC(=O)c1ccc(S(=O)(=O)N2CC[C@@H](Sc3cc(C(C)(C)C)c(O)c(C(C)(C)C)c3)C2)n1C` belongs 83 to 85 °C; to `CS(=O)(=O)Nc1ncc(SCc2ccccc2)s1`, 159 to 162 °C; to `CN(C(=O)c1cc(=O)n(C)c2ccc(C(O)(c3ccc(Cl)cc3)c3cncn3C)cc12)c1cccc(Cl)c1` (stereo unspecified), 218 °C.
As to `OCc1ncn2cc(Br)sc12`, the melting point fell in the range of 104 to 105 °C.
With `CC(C)Nc1nc(Nc2cccc(NS(C)(=O)=O)c2)nc2[nH]cnc12`, the melting point fell in the range of 161 to 165 °C.
With `O=C(NCCc1ccccc1)C(F)(F)F`, the melting point was in the range of 50 to 52 °C.
`O=C1Cc2ccccc2C(=O)N1c1ccc(Cl)cc1` registered a melting point of 178 to 180 °C.
Compound `O=C(NCCCn1ccnc1)c1[nH]c2ccc(Cl)cc2c1S(=O)(=O)c1ccccc1` returned a melting point of 216 to 218 °C.
Under `O=C(O)CN1C(=O)C(=Cc2ccc(OCc3ccc(F)cc3F)c(OCc3ccc(F)cc3F)c2)SC1=S` stands 251 to 254 °C; under `CCOC(=O)C(C)Oc1ccc(Oc2nnc3cc(Br)ccc3n2)cc1` (stereo unspecified), 104 °C; under `CC(C)c1nc(-c2cc3cc(OCCNC[C@H](O)c4cccc(Cl)c4)ccc3o2)no1`, 84 to 87 °C.
Compound `CC1COc2cc(-c3ccco3)ccc2C1=NO` (stereo unspecified) showed a melting point of 175 to 177 °C.
To `COc1ccc(-c2ncccc2C=C(Cc2cc3c(cc2OC)OCO3)C(=O)O)c(OCc2ccccc2C(=O)O)c1` belongs 135 to 140 °C; to `Clc1nnc(Cl)c2c1CCCC2`, 148 to 150 °C.
On to `COc1ccc(NC(=O)NCC2(c3ccccc3)CCCCC2)cc1`, for which the melting point lay in the range of 155 to 157 °C.
Under `CCc1ncnc(Sc2ccc(Cl)cc2)c1F` stands 44.1 to 45.5 °C; under `Cn1nc2c(cc1=O)CCc1cc(O)ccc1-2`, more than 300 °C.
To `OCC(CO)(OCc1ccccc1)c1ccccc1` belongs 83 to 86 °C; to `COc1cc2c(c([N+](=O)[O-])c1O)C(=O)c1ccccc1C2=O`, 296 to 297 °C; to `COc1ccc2c(CCN3CC=C(c4c[nH]c5ccccc45)CC3)coc2c1`, 54 °C.
Regarding `O=C(OCc1ccccc1)N1CCN2C(=O)OCC2C1` (racemic), the melting point fell in the range of 85.5 to 86.5 °C.
To `O=C1c2ccccc2C(=O)N1C1CCC(c2cc(F)c(Br)cc2F)C1` (stereo unspecified) belongs 44 to 47 °C.
To `O=C(O)C(=NO)C(c1ccc(OCc2ccc3ccccc3n2)cc1)c1ccc(OCc2ccc3ccccc3n2)cc1` belongs 183 to 185 °C.
As for `N#CC(CCc1ccc(Cl)cc1)(c1ccccc1)c1cccnc1` (stereo unspecified), the melting point fell in the range of 83 to 84 °C.
To `CC(C)(C)OC(=O)NCC1CCN(CC2(C(=O)O)CCOCC2)CC1` belongs 129 °C; to `O=C(NC1CCc2ccc([N+](=O)[O-])cc2C1)c1ccccc1` (stereo unspecified), 194 to 198 °C; to `Cc1cc(=O)[nH]nc1-c1ccc2c(c1)C(C)CC(=O)N2` (stereo unspecified), more than 300 °C.
The compound `CS(=O)(=O)c1ccc(OCc2ccccc2)c(C=O)c1` gave a melting point of 129 °C.
Under `O=C(O)Cn1c(=O)c(=O)[nH]c2cc(Cl)c(Cl)cc21` stands 317 to 319 °C; under `Cn1cc(-c2ccncn2)ccc1=O`, 147 to 149 °C.
Under `COC1=CC[C@H]2[C@@H]3CCc4cc(OC)ccc4[C@H]3CC[C@]12C` stands 90.5 to 93 °C.
The compound `COC(=O)C1=C(O)c2ccc3ccccc3c2S(=O)(=O)N1` gave a melting point of 218 to 220 °C.
`CC1=CC(O)C(OC(=O)c2ccc(Cl)cc2)C(C)(C)CC1=O` (stereo unspecified) had a melting point of 114 to 116 °C.
On to `COc1ccc(C(=O)COc2ccc(C(=O)OCc3ccccc3)c(O)c2)cc1C12CC3CC(CC(C3)C1)C2`, for which the melting point worked out at 129 °C.
To `Cc1nc(N)sc1S(=O)(=O)N1CCN(C)CC1` belongs 188 °C; to `COC(=O)c1cc2cc(OC)c(OC)cc2cc1C(=O)O`, 181 to 183 °C; to `OC[C@@H](O)CCc1ccc2ccccc2c1O`, 105 to 108 °C.
Under `O=CNCC1c2ccccc2C=Cc2ccccc21` stands 115 to 118 °C; under `COC(=O)Nc1ccc(CCc2cc(OC)ccc2OC)cc1C(=O)OC`, 80 to 82 °C.
For the compound `CCc1nc2c(C)cc(C)nc2n1Cc1ccc(C(=Cc2nnn[nH]2)c2ccccc2Cl)cc1`, the melting point is 28 °C.
Compound `Cc1nc2c(-c3cccc(N4CCN(C)CC4)c3)cnn2c(N)c1-c1ccc(F)c(F)c1` returned a melting point of 216 to 219 °C.
Under `O=C(Nc1ccc(OCc2ccccn2)nc1)N1CCc2ccc(C(F)(F)F)cc21` stands 178 to 179 °C; under `Cc1cc2c(s1)Nc1ccccc1N=C2N1CCN[C@@H](CO)C1`, 90 °C; under `CCOC(=O)c1ncn2c1CN=C(c1ccccc1F)c1cc(I)ccc1-2`, 200 to 202 °C.
To `NS(=O)(=O)N1CCC(F)(F)CC1` belongs 111 to 112 °C.
Under `Cc1ccc2c(c1)Sc1cc(C)ccc1O2` stands 69 to 70 °C.
`Nc1c(NCCSCc2csc(CN3CCCCC3)c2)c(=O)c1=O` came in with a melting point of 236 to 238 °C.
`C=CCn1nnc2cc3c(=O)n(C(C)Cn4ncnn4)nnc3cc2c1=O` (stereo unspecified) had a melting point of 159 to 161 °C.
Under `COc1cc2ncnc(Nc3cccc(Cl)c3F)c2cc1O` stands 265 to 268 °C.
To `COC(=O)c1n[nH]cc1[N+](=O)[O-]` belongs 115 to 117 °C; to `O=C(CN1CCCCC1)Nc1ccc(-c2cc(-c3c[nH]nc3-c3ccccn3)ccn2)cc1`, 180 °C; to `Nc1c(Cl)cc(C(=O)Cl)cc1Cl`, 165 °C.
`Cc1nc(NC(=O)c2ccccc2)n(C)c(=O)c1CCN1CCC(=C(c2ccc(F)cc2)c2ccc(F)cc2)CC1`: the melting point is 240 °C.
To `Cc1cccc(-n2c(Cn3ccnc3)nc3ccccc32)c1` belongs 91 to 93 °C.

As usually defined, the melting point is the temperature of the solid-liquid transition.
